Source: patent US20050014816A1, “Thiophene amino acid derivatives, process for preparing them and pharmaceutical compositions containing them” (Pfizer Inc, priority 2003, published 2005)

Experiments:
MMP-13 = MMP-13 (Homo sapiens, UniProt P45452); assay: MMP-12 inhibition test adapted to MMP-13; type: biochemical; details: test for MMP-12 adapted to MMP-13
Description: The reaction starts with the sequential addition of 41 μl of FP-1 substrate (final concentration of 10 μM) to a buffer solution of 50 mM of Tris-HCl and 10 mM of CaCl2, and containing 5 mM of hydroxamic acid and 5 μl of the enzyme diluted in a 0.005% Brij-35 buffer solution. The microplates are incubated for 20 minutes at room temperature. The compounds of the invention are tested at concentrations ranging from 0.3 to 30 μM. The measurement of the amount of proteolysis of the peptide substrate is monitored by means of a measurement of absorbance at 405 nm using a microplate spectrophotometer, at room temperature. The IC50 values are calculated from curves in which the percentage of the catalytic activity relative to the control is represented on the x-axis and the inhibitor concentration is represented on the y-axis.
The test described above for the inhibition of MMP-12 is adapted and used to determine the capacity of the compounds of formula (I) to inhibit the metalloproteases MMP-1, MMP-2, MMP-3, MMP-7, MMP-9, MMP-13 and MMP-14.

MMP-12 = MMP-12 (Homo sapiens, UniProt P39900); assay: in vitro inhibitory activity on MMP-12 (proteolysis of FP-1 peptide substrate); type: biochemical; details: FP-1 substrate 10 μM, 20 minutes at room temperature
Description: in vitro Evaluation of the Inhibitory Activity of the Compounds of the Invention on MMP-12:
The inhibitory activity of the compounds of formula (I) on metalloprotease-12 is evaluated by testing the capacity of the compounds of the invention to inhibit the proteolysis of a peptide that is an MMP-12 substrate.
The substrate peptide used (fluorigenic peptide-1: FP-1) in the test has the following sequence: Mca-Pro-Leu-Gly-Leu-Dap(Dnp)-Ala-Arg-NH2.
The inhibitory activity of a compound of formula (I) is expressed as the IC50 value, which represents the concentration of inhibitor for which a 50% inhibition of the metalloprotease is observed.
The reaction starts with the sequential addition of 41 μl of FP-1 substrate (final concentration of 10 μM) to a buffer solution of 50 mM of Tris-HCl and 10 mM of CaCl2, and containing 5 mM of hydroxamic acid and 5 μl of the enzyme diluted in a 0.005% Brij-35 buffer solution. The microplates are incubated for 20 minutes at room temperature. The compounds of the invention are tested at concentrations ranging from 0.3 to 30 μM. The measurement of the amount of proteolysis of the peptide substrate is monitored by means of a measurement of absorbance at 405 nm using a microplate spectrophotometer, at room temperature. The IC50 values are calculated from curves in which the percentage of the catalytic activity relative to the control is represented on the […] and the inhibitor concentration is represented on the y-axis.

Sequence of MMP-12 (P39900 106-470): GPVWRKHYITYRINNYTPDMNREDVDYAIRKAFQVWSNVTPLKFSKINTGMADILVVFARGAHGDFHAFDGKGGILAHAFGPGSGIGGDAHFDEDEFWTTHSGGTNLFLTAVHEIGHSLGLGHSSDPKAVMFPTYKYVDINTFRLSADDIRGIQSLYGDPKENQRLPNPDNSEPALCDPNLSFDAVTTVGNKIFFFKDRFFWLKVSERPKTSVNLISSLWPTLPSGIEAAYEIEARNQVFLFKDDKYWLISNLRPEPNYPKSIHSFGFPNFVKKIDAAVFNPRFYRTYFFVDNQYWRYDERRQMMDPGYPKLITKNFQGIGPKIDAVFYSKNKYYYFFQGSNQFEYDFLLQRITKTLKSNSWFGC

Question: For `O=C(O)CC(NC(=O)c1cc(-c2ccc(OC(F)(F)F)cc2)cs1)c1ccccc1` (racemic) [Example 6, {1[(4-Trifluoromethoxyphenyl)thien-2-yl]carboxamido}(phenyl)-propanoic acid], which IC50 (MMP-13) is on record?
Answer: 3.6 µM

Question: And the IC50 (MMP-12)?
Answer: 0.42 µM

Question: `O=C(N[C@H](C(=O)O)c1ccccc1)c1cc(-c2ccc(OC(F)(F)F)cc2)cs1` [Example 2] was tested. Which IC50 (MMP-13) did it give?
Answer: 4.5 µM

Question: And the IC50 (MMP-12)?
Answer: 0.38 µM

Question: With `O=C(N[C@@H](C(=O)O)c1ccccc1)c1cc(-c2ccc(OC(F)(F)F)cc2)cs1` [Example 4, (2R)-{[4-(4-Trifluoromethoxyphenyl)thien-2-yl]carboxamido}-(phenyl)acetic acid] as the compound, how does the IC50 (MMP-13) read?
Answer: 5.6 µM

Question: And the IC50 (MMP-12)?
Answer: 0.47 µM

Question: What does the source list for `O=C(N[C@H](Cc1ccccc1)C(=O)O)c1cc(-c2ccc(OC(F)(F)F)cc2)cs1` [Example 8, (2R)-{[4-(4-Trifluoromethoxyphenyl)thien-2-yl]carboxamido}(phenyl)-propanoic acid]?
Answer: IC50 (MMP-13): 2.2 µM; IC50 (MMP-12): 0.18 µM

Question: `NC(=O)C[C@@H](NC(=O)c1cc(-c2ccc(OC(F)(F)F)cc2)cs1)c1ccccc1` [Example 9] was tested. Which IC50 (MMP-13) did it give?
Answer: 0.96 µM

Question: What about the IC50 (MMP-12) of the same compound?
Answer: 0.077 µM

Question: `O=C(O)C[C@H](Cc1ccccc1)NC(=O)c1cc(-c2ccc(OC(F)(F)F)cc2)cs1` [Example 12, (3S)-3-{[4-(4-Trifluoromethoxyphenyl)thien-2-yl]carboxamido)-4-phenylbutanoic acid] was tested. Which IC50 (MMP-13) did it give?
Answer: 8.3 µM

Question: And the IC50 (MMP-12)?
Answer: 0.53 µM

Question: For `O=C(N[C@H](C(=O)O)c1ccccc1)c1cc(-c2ccc(C3CCCCC3)cc2)cs1` [Example 16, (2S)-{[4-(4-cyclohexylphenyl)thien-2-yl]carboxamido}(phenyl)acetic acid], which IC50 (MMP-13) is on record?
Answer: 6.5 µM

Question: What about the IC50 (MMP-12) of the same compound?
Answer: 0.54 µM

Question: Which results are given for `CC(=O)c1ccc(-c2ccc(-c3csc(C(=O)N[C@H](C(=O)O)c4ccccc4)c3)cc2)cc1` [Example 18, (2S)4-[({4-[4-(4-Acetylphenyl)phenyl]thien-2-yl}carbonyl)amino]-(phenyl)acetic acid]?
Answer: IC50 (MMP-13): 0.12 µM; IC50 (MMP-12): 0.04 µM

Question: Which IC50 (MMP-13) does the source give for `CC(=O)c1ccc(-c2ccc(-c3csc(C(=O)N[C@H](CC(=O)O)c4ccccc4)c3)cc2)cc1` [Example 20] here?
Answer: 0.069 µM

Question: What about the IC50 (MMP-12) of the same compound?
Answer: 0.028 µM
